In publication PMC6173509, “C-3- and C-4-Substituted Bicyclic Coumarin Sulfamates as Potent Steroid Sulfatase Inhibitors” (ACS Omega, 2018):
pIC50: −log10 of the molar value.

Experiments:
steroid sulfatase (STS) [1] = biological target: T1, steroid sulfatase (STS) (Homo sapiens, UniProt P08842); parameters: a placental microsomal preparation from a sulfatase-positive human placenta from a normal term pregnancy; from tissue; host or cells: human placenta (microsomal preparation); conditions: cited from earlier work; for % Inhibition of STS Activity in Placental Microsomes at 0.1 μM: 0.1 μM inhibitor; for % Inhibition of STS Activity in Placental Microsomes at 1 μM: 1 μM inhibitor; for % Inhibition of STS Activity in Placental Microsomes at 10 μM: 10 μM inhibitor
T1 sequence (P08842 22-583): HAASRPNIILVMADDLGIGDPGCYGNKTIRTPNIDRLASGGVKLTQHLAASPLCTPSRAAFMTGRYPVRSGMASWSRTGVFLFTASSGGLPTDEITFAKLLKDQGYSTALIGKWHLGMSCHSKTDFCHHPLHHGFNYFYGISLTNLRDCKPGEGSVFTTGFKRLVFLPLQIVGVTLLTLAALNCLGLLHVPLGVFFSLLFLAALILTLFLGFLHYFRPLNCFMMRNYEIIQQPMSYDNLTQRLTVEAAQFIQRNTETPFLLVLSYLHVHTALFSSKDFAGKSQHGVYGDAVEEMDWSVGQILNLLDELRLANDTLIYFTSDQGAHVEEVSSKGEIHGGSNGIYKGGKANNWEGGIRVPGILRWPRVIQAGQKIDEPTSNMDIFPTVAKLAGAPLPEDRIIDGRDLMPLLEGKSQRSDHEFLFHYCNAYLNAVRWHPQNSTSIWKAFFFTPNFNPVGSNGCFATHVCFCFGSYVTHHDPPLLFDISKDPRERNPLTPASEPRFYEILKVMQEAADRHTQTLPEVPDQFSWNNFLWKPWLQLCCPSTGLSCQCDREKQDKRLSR

[2] = rodent; cited from earlier work
steroid sulfatase (STS) [3] = biological target: T1, steroid sulfatase (STS); parameters: endogenous in cells; host or cells: MCF-7 breast cancer cells; conditions: cited from earlier work
[4] = parameters: method as in PMID 18288656, PMID 18288656, PMID 24604234; conditions: rats; ref 12a, 12b, 14; cited from earlier work
steroid sulfatase (STS) [5] = biological target: T1, steroid sulfatase (STS); test: STS inhibition in placental microsomes; format: biochemical; parameters: a placental microsomal preparation from a sulfatase-positive human placenta from a normal term pregnancy; from tissue; host or cells: human placenta (microsomal preparation); conditions: 20 μM E1S; for inhibition at 0.01 µM: 0.01 μM inhibitor; for inhibition at 0.1 µM: 0.1 μM inhibitor; for inhibition at 1 µM: 1 μM inhibitor; for inhibition at 10 µM: 10 μM inhibitor
steroid sulfatase (STS) [6] = biological target: T1, steroid sulfatase (STS); test: STS inhibition in intact MCF-7 breast cancer cells; format: cell-based; parameters: endogenous in cells; host or cells: MCF-7 breast cancer cells; conditions: for pIC50: 3 nM E1S; for inhibition at 0.01 µM: MCF7, read-out: % Inhibition of STS Activity in Intact MCF-7 Breast Cancer Cells at 0.01 μM; for inhibition at 0.1 µM: MCF7, read-out: % Inhibition of STS Activity in Intact MCF-7 Breast Cancer Cells at 0.1 μM; for inhibition at 1 µM: MCF7, read-out: % Inhibition of STS Activity in Intact MCF-7 Breast Cancer Cells at 1 μM; for inhibition at 10 µM: MCF7, read-out: % Inhibition of STS Activity in Intact MCF-7 Breast Cancer Cells at 10 μM

Row | SMILES | % Inhibition of STS Activity in Placental Microsomes at 0.1 μM (steroid sulfatase (STS) [1]) | % Inhibition of STS Activity in Placental Microsomes at 1 μM (steroid sulfatase (STS) [1]) | % Inhibition of STS Activity in Placental Microsomes at 10 μM (steroid sulfatase (STS) [1]) | estrogenic activity [2] | % Inhibition of STS Activity in Intact MCF-7 Breast Cancer Cells at 0.01 μM (steroid sulfatase (STS) [3]; 0.01 μM inhibitor) | % Inhibition of STS Activity in Intact MCF-7 Breast Cancer Cells at 0.1 μM (steroid sulfatase (STS) [3]; 0.1 μM inhibitor) | estrogenicity [4] | inhibition at 0.01 µM (steroid sulfatase (STS) [5]) | inhibition at 0.1 µM (steroid sulfatase (STS) [5]) | inhibition at 1 µM (steroid sulfatase (STS) [5]) | inhibition at 10 µM (steroid sulfatase (STS) [5]) | pIC50 (steroid sulfatase (STS) [5]) | pIC50 (steroid sulfatase (STS) [6]) | inhibition at 0.01 µM (steroid sulfatase (STS) [6]) | inhibition at 0.1 µM (steroid sulfatase (STS) [6]) | inhibition at 1 µM (steroid sulfatase (STS) [6]) | inhibition at 10 µM (steroid sulfatase (STS) [6])
1 | CCc1c(C)c2ccc(OS(N)(=O)=O)cc2oc1=O [compound 7] | 57% | 96% | >99% | – | – | – | – | – | – | – | – | – | – | – | – | – | –
2 | Cc1cc(=O)oc2cc(OS(N)(=O)=O)ccc12 [compound 3, 4-methylcoumarin-7-O-sulfamate] | <10% | 63% | – | no rodent estrogenic activity | <10% | 43% | – | – | – | – | – | – | – | – | – | – | –
3 | CCc1cc(=O)oc2cc(OS(N)(=O)=O)ccc12 [compound 4] | 35% | 88% | >99% | – | – | – | – | – | – | – | – | – | – | – | – | – | –
4 | C[C@]12CC[C@@H]3c4ccc(OS(N)(=O)=O)cc4CC[C@H]3[C@@H]1CCC2=O [compound 1, estrone-3-O-sulfamate] | – | – | – | – | – | – | highly estrogenic | – | – | – | – | – | – | – | – | – | –
5 | CCCc1c(C)c2ccc(OS(N)(=O)=O)cc2oc1=O [compound 8] | 83% | 97% | >99% | – | – | – | – | – | – | – | – | – | – | – | – | – | –
6 | NS(=O)(=O)Oc1ccc2c(CCc3ccccc3)cc(=O)oc2c1 [compound 24, 4-(2-Phenylethyl)coumarin-7-O-sulfamate] | – | – | – | – | – | – | – | 8% | 53% | 93% | 98% | 7.09 | 7.74 | 39% | 84% | 95% | 98%
7 | CCCCCCCCCc1cc(=O)oc2cc(OS(N)(=O)=O)ccc12 [compound 14, 4-Nonylcoumarin-7-O-sulfamate] | – | – | – | – | – | – | – | 18% | 79% | 97% | 99% | 7.22 | – | 90% | 96% | 98% | 100%
8 | CCCCCCCCCCc1c(C)c2ccc(OS(N)(=O)=O)cc2oc1=O [compound 33, 3-Decyl-4-methylcoumarin-7-O-sulfamate] | – | – | – | – | – | – | – | 3% | 33% | 79% | 94% | 6.60 | > 8.00 | 80% | 97% | 99% | 97%
9 | Cc1c(Cc2ccccc2)c(=O)oc2cc(OS(N)(=O)=O)ccc12 [compound 41, 3-Benzyl-4-methylcoumarin-7-O-sulfamate] | – | – | – | – | – | – | – | 53% | 94% | 99% | – | – | – | 85% | 91% | 94% | 97%
10 | CCCCCCCCCCCCCc1cc(=O)oc2cc(OS(N)(=O)=O)ccc12 [compound 18, 4-Tridecylcoumarin-7-O-sulfamate] | – | – | – | – | – | – | – | 7% | 55% | 80% | 91% | 7.07 | 8.49 | 72% | 96% | – | –
11 | CCCCCCc1c(C)c2ccc(OS(N)(=O)=O)cc2oc1=O [compound 29, 3-Hexyl-4-methylcoumarin-7-O-sulfamate] | – | – | – | – | – | – | – | 13% | 88% | 99% | 99% | – | – | – | 99% | 100% | 100%
12 | CCCc1cc(=O)oc2cc(OS(N)(=O)=O)ccc12 [compound 5] | 42% | 94% | 96% | – | – | – | – | – | – | – | – | – | – | – | – | – | –
13 | CCCCCCCCCc1c(C)c2ccc(OS(N)(=O)=O)cc2oc1=O [compound 32, 4-Methyl-3-nonylcoumarin-7-O-sulfamate] | – | – | – | – | – | – | – | 21% | 85% | 97% | 98% | – | ~8.00 | 57% | 96% | 99% | 99%
14 | CCCCCCCCc1cc(=O)oc2cc(OS(N)(=O)=O)ccc12 [compound 13, 4-Octylcoumarin-7-O-sulfamate] | – | – | – | – | – | – | – | 28% | 74% | 97% | 99% | 7.17 | – | – | 90% | 97% | 99%
15 | CCCCCCCc1cc(=O)oc2cc(OS(N)(=O)=O)ccc12 [compound 12, 4-Heptylcoumarin-7-O-sulfamate] | – | – | – | – | – | – | – | 8% | 64% | 97% | 99% | 7.05 | – | – | 93% | 95% | 99%
16 | CCCCCCCc1c(C)c2ccc(OS(N)(=O)=O)cc2oc1=O [compound 30, 3-Heptyl-4-methylcoumarin-7-O-sulfamate] | – | – | – | – | – | – | – | 23% | 65% | 97% | 99% | – | – | – | 99% | 100% | 100%
17 | CCCCCc1cc(=O)oc2cc(OS(N)(=O)=O)ccc12 [compound 10, 4-Pentylcoumarin-7-O-sulfamate] | – | – | – | – | – | – | – | 22% | 70% | 97% | 99% | 7.40 | 8.00 | 52% | 88% | 92% | 95%
